For assay [1], the target named is Recombinant KRAS-G12V (SEQ ID NO: 3) (Homo sapiens, UniProt P01116, G12V). Nature of the assay: SOS-catalyzed guanine nucleotide exchange (GNE) assay, KRAS-G12V.
Method: (§1) Specifically, the SOS-catalyzed nucleotide exchange assay utilizes a preformed time-resolved fluorescence resonance energy transfer (TR-FRET) complex containing a specific biotinylated RAS protein (KRAS-G12C/V/D, HRAS, NRAS; described above) with BODIPY-GDP, and Terbium-streptavidin. Test compounds are preincubated with this complex for 60 minutes.
(§2) To assemble the preformed TR-FRET complexes, each biotinylated RAS protein is diluted to 2 μM in an EDTA Buffer (20 mM HEPES, 50 mM sodium chloride, 10 mM EDTA, and 0.01% Tween) and incubated at room temperature for one hour. This mixture is then further diluted to 90 nM in an Assay Buffer (20 mM HEPES, 150 mM sodium chloride, 10 mM magnesium chloride, and 0.005% Tween) containing 15 nM of Terbium-Streptavidin (Invitrogen, catalog #PV3577) and 900 nM of BODIPY-GDP (Invitrogen, catalog #G22360) and incubated at room temperature for six hours. It should be noted that this preformed TR-FRET complex for each of the RAS proteins was made ahead of time, aliquoted and stored at −80° C. until the day of the experiment.
(§3) Once titrations are made, 10 nL of the diluted compounds is acoustically dispensed into a 384-well assay plate (Corning, catalog #3820) using an Echo 550 (Labcyte). Each well of the assay plate subsequently receives 3 μL of a specific 3× RAS preformed TR-FRET complex and 3 μL of Assay Buffer and is incubated at room temperature for 60 minutes (preincubation time). […] The final reaction in each well of 9 μL consists of 3 mM GTP, and the specific RAS and SOS proteins in the following concentrations: KRAS-G12C/SOS=3 nM/40 nM, KRAS-G12D/SOS=1 nM/40 nM, KRAS-G12V/SOS=1.25 nM/160 nM, HRAS/SOS=1.25 nM/40 nM, and NRAS/SOS=1.25 nM/40 nM.
(§4) The TR-FRET signal is measured on an Envision (PerkinElmer) plate reader: Excitation filter=340 nm; emission 1=495 nm; emission 2=520 nm; dichroic mirror=D400/D505; delay time=100 ms. The signal of each well is determined as the ratio of the emission at 520 nm to that at 495 nm. […] The apparent effect as a function of compound concentration is fit to a four-parameter logistic equation to calculate IC50 values using Spotfire software.
Assay [2] concerns AsPC-1 cells containing homozygous KRAS-G12D activating mutation (p-ERK). As to conditions: Homo sapiens, ASPC1, 2 h, read-out: KRAS G12D ASPC-1 IC50 (nM).
Method: Procedure for Cellular Phospho-ERK Assay, G12D
AsPC-1 cells (ATCC® CRL-1682™), containing homozygous KRAS-G12D activating mutation, were cultured in T150 flask in growth medium (RPMI medium 1640-GlutaMAX™—I (ThermoFisher Scientific 61870) containing 10% fetal bovine serum (ThermoFisher Scientific 10091148)). The cells were harvested in growth medium after TrypLE (ThermoFisher scientific 12604021) digestion and were seeded in a 384-well collagen coated cell culture plate (Corning 356702) at a density of 15,000 cells/well, and incubated at 37° C., 5% CO2 overnight. […] RPMI medium 1640-GlutaMAX™—I was added to the intermediate plate and the contents of the intermediate plate were then transferred to the 384-well collagen coated cell culture plate, which was incubated at 37° C., 5% CO2 for 2 hours. After removal of medium from the collagen coated cell culture plate, cells were lysed in lysis buffer from Alpha SureFire® Ultra™ Multiplex p-ERK and total ERK assay kit (PerkinElmer MPSU-PTERK) containing Halt™ Protease and Phosphatase inhibitor cocktail (ThermoFisher Scientific 78446) at room temperature with constant shaking at 300 rpm for 30 minutes. The cell lysates were then transferred to an OptiPlate-384 plate (PerkinElmer 6005620), and the phosphorylation of ERK (p-ERK) and total ERK levels were detected by Alpha SureFire® Ultra™ Multiplex p-ERK kit and total ERK assay kit (PerkinElmer MPSU-PTERK) following the manufacturer's protocol. Assay plates were read on a EnVision Multimode Plate Reader (PerkinElmer), and the ratio of p-ERK vs. total ERK in each well was used as the final readout. Dose response curves were analyzed using a 4-parameter logistic model to calculate IC50 values using Spotfire software.
The target of assay [3] is Recombinant KRAS-G12D (SEQ ID NO: 2) (Homo sapiens, UniProt P01116, G12D). As to the kind of experiment: SOS-catalyzed guanine nucleotide exchange (GNE) assay, KRAS-G12D.
Method: as §1, §2, §3, §4
For a further assay, the target named is G13D (Homo sapiens, UniProt P01116, G13D). As to the kind of experiment: Guanine nucleotide exchange (GNE) assay, G13D. It counts as biochemical.
Assay [4] relates to NCI-H358 cells containing homozygous KRAS-G12C activating mutation (p-ERK). As to conditions: Homo sapiens, NCI-H358, 2 h, read-out: G12C H358 IC50 (nM).
Method: Procedure for Cellular Phospho-ERK Assay, G12C
NCI-H358 cells (ATCC® CRL-5807™), containing homozygous KRAS-G12C activating mutation, were cultured in T150 flask in growth medium (RPMI medium 1640-GlutaMAX™—I (ThermoFisher Scientific 61870) containing 10% fetal bovine serum (ThermoFisher Scientific 10091148)). The cells were harvested in growth medium after TrypLE (ThermoFisher scientific 12604021) digestion and were seeded in a 384-well collagen coated cell culture plate (Corning 356702) at a density of 15,000 cells/well, and incubated at 37° C., 5% CO2 overnight. […] RPMI medium 1640-GlutaMAX™—I was added to the intermediate plate and the contents of the intermediate plate were then transferred to the 384-well collagen coated cell culture plate, which was incubated at 37° C., 5% CO2 for 2 hours. After removal of medium from the collagen coated cell culture plate, cells were lysed in lysis buffer from Alpha SureFire® Ultra™ Multiplex p-ERK and total ERK assay kit (PerkinElmer MPSU-PTERK) containing Halt™ Protease and Phosphatase inhibitor cocktail (ThermoFisher Scientific 78446) at room temperature with constant shaking at 300 rpm for 30 minutes. The cell lysates were then transferred to an OptiPlate-384 plate (PerkinElmer 6005620), and the phosphorylation of ERK (p-ERK) and total ERK levels were detected by Alpha SureFire® Ultra™ Multiplex p-ERK kit and total ERK assay kit (PerkinElmer MPSU-PTERK) following the manufacturer's protocol. Assay plates were read on an EnVision Multimode Plate Reader (PerkinElmer), and the ratio of p-ERK vs. total ERK in each well was used as the final readout. Dose response curves were analyzed using a 4-parameter logistic model to calculate IC50 values using Spotfire software.
A further assay addresses NRAS (SEQ ID NO: 5) (Homo sapiens, UniProt P01111). Nature of the assay: SOS-catalyzed guanine nucleotide exchange (GNE) assay, NRAS.
For a further assay, the target named is HRAS (SEQ ID NO: 4) (Homo sapiens, UniProt P01112). As to the kind of experiment: SOS-catalyzed guanine nucleotide exchange (GNE) assay, HRAS.
HRAS (SEQ ID NO: 4), sequence (P01112 with tags, fused parts or gaps): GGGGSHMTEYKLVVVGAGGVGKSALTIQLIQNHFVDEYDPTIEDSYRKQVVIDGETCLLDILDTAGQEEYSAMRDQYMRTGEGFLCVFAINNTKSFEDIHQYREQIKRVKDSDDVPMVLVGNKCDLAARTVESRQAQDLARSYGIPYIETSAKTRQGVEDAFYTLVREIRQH

Recombinant KRAS-G12V (SEQ ID NO: 3), sequence (P01116 with tags, fused parts or gaps isoform P01116-2 G12V): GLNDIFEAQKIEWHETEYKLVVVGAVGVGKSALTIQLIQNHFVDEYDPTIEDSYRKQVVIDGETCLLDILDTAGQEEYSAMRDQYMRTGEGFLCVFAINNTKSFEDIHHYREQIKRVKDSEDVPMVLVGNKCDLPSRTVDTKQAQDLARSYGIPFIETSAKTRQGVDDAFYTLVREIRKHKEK
G13D, sequence (P01116 1-188 isoform P01116-2 G13D): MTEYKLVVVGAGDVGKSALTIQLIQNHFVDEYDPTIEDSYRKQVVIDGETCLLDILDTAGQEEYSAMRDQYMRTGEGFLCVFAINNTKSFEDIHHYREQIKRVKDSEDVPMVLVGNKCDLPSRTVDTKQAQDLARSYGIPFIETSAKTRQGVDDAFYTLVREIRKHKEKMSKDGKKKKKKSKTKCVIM
Recombinant KRAS-G12D (SEQ ID NO: 2), sequence (P01116 with tags, fused parts or gaps isoform P01116-2 G12D): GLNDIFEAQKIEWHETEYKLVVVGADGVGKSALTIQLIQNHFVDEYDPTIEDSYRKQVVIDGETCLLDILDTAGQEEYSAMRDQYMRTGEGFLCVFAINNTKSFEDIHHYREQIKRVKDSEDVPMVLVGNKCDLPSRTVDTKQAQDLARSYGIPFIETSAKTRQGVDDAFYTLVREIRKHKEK
NRAS (SEQ ID NO: 5), sequence (P01111 with tags, fused parts or gaps): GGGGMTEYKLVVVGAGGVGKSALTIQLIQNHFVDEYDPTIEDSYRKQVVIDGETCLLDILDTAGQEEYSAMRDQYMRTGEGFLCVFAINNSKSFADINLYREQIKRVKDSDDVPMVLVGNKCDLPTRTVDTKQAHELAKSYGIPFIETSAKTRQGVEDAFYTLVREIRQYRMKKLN
Method for G13D: as §4

For `C#Cc1cccc2cc(O)cc(-c3c(F)cc4c(N5CCCC(O)(CO)C5)nc(OC[C@@]56CCCN5C[C@H](F)C6)nc4c3F)c12` (stereo partly drawn) [Ex-48, 1-(7-(8-ethynyl-3-hy-droxynaphthalen-1-yl)-6,8-difluoro-2-(((2R,7aS)-2-fluorotetrahydro-1H-pyrrolizin-7a(5H)-yl)methoxy)quinazolin-4-yl)-3-(hydroxymethyl)piperidin-3-ol], the IC50 in assay [1] amounted to 5 nM; in assay [2], 376 nM; in assay [3], 13 nM; on G13D it was 7 nM; in assay [4], 180 nM.

Regarding `C#Cc1c(F)ccc2cccc(-c3c(F)cc4c(N5CCC[C@@](C)(O)C5)nc(OC[C@@]56CCCN5C[C@H](F)C6)nc4c3F)c12` [Ex-47, (3R)-1-(7-(8-ethynyl-7-fluoronaphthalen-1-yl)-6,8-difluoro-2-(((2R,7aS)-2-fluorotetrahydro-1H-pyrrolizin-7a(5H)-yl)methoxy)quinazolin-4-yl)-3-methylpiperidin-3-ol], the IC50 in assay [1] was 390 nM; in assay [2], 2070 nM; in assay [3], 239 nM; at G13D, 173 nM; in assay [4] it was 979 nM.

As to `Oc1cc(-c2c(F)cc3c(N4CCCC(O)(C(F)(F)F)C4)nc(OC[C@@]45CCCN4C[C@H](F)C5)nc3c2F)c2c(Cl)cccc2c1` (single isomer, unassigned) [Ex-38], the IC50 in assay [1] came out at 598 nM; in assay [2] it was 6860 nM; in assay [3], 857 nM; against G13D, 777 nM; in assay [4], 2170 nM.

As for `CC1(O)CCCN(c2nc(OC[C@@]34CCCN3C[C@H](F)C4)nc3c(F)c(-c4cc(O)cc5cccc(Cl)c45)c(F)cc23)C1` (stereo partly drawn) [Ex-29, 1-(7-(8-chloro-3-hydroxynaphthalen-1-yl)-6,8-difluoro-2-(((2R,7aS)-2-fluorotetrahydro-1H-pyrrolizin-7a(5H)-yl)methoxy)quinazolin-4-yl)-3-methylpiperidin-3-ol], the IC50 in assay [1] is 17 nM; in assay [2] it was 900 nM; in assay [3] it was 15 nM; at G13D, 13 nM; in assay [4] it was greater than 30000 nM.

`C#Cc1cccc2cc(O)cc(-c3ncc4c(N5CCC[C@@](C)(O)C5)nc(OCC56CCCN5CCC6)nc4c3F)c12` [Ex-22, (R)-1-(7-(8-ethyny1-3-hydroxynaphthalen-1-yl)-8-fluoro-2-((tetrahydro-1H-pyrrolizin-7a(5H)-yl)methoxy)pyrido[4,3-d]pyrimidin-4-yl)-3-methylpiperidin-3-ol]: the half-maximal inhibitory concentration (IC50) was 2 nM in assay [1]; 1160 nM in assay [2]; 1 nM in assay [3]; 1 nM at G13D; 305 nM in assay [4].

Turning to `Cc1cc2[nH]ncc2c(-c2c(F)cc3c(N4CCC[C@H](O)CC4)nc(OC[C@@]45CCCN4C[C@H](F)C5)nc3c2F)c1C(F)(F)F` [Ex-40, (4S)-1-(6,8-difluoro-2-(((2R,7aS)-2-fluorotetrahydro-1H-pyrrolizin-7a(5H)-yl)methoxy)-7-(6-methyl-5-(trifluoromethyl)-1H-indazol-4-yl)quinazolin-4-yl)azepan-4-ol], the IC50 in assay [1] was 470 nM; in assay [2], 1330 nM; in assay [3], 173 nM; against G13D, 931 nM; in assay [4], 981 nM.

For `CC1(O)CN(c2nc(OC[C@@]34CCCN3C[C@H](F)C4)nc3c(F)c(-c4cc(O)cc5cccc(Cl)c45)c(F)cc23)CCC1(F)F` (stereo partly drawn) [Ex-31, 1-(7-(8-chloro-3-hydroxynaphthalen-1-yl)-6,8-difluoro-2-(((2R,7aS)-2-fluorotetrahydro-1H-pyrrolizin-7a(5H)-yl)methoxy)quinazolin-4-yl)-4,4-difluoro-3-methylpiperidin-3-ol], the IC50 in assay [1] came out at 358 nM; in assay [2] it was 1730 nM; in assay [3] it was 984 nM; against G13D it was 189 nM; in assay [4] it was 468 nM.

With `CC1(O)CCCCN(c2nc(OC[C@@]34CCCN3C[C@H](F)C4)nc3c(F)c(-c4cc(O)cc5cccc(Cl)c45)c(F)cc23)C1` (single isomer, unassigned) [Ex-36], the IC50 was 300 nM in assay [1]; 1860 nM in assay [2]; 398 nM in assay [3]; 142 nM against G13D; 3580 nM in assay [4].

Take `C#Cc1cccc2cc(O)cc(-c3c(F)cc4c(N5CCCC(O)(C(F)F)C5)nc(OC[C@@]56CCCN5C[C@H](F)C6)nc4c3F)c12` (stereo partly drawn) [Ex-43, 3-(difluoromethyl)-1-(7-(8-ethynyl-3-hydroxynaphthalen-1-yl)-6,8-difluoro-2-(((2R,7aS)-2-fluorotetrahydro-1H-pyrrolizin-7a(5H)-yl)methoxy)quinazolin-4-yl)piperidin-3-ol]: the IC50 in assay [1] turned out to be 10 nM; in assay [2], 215 nM; in assay [3] it was 13 nM; on G13D, 8 nM; in assay [4], 58 nM.

For `Cc1cc(N)nc(-c2c(Cl)cc3c(N4CCCC(C)(O)C4)nc(OC[C@@]45CCCN4C[C@H](F)C5)nc3c2F)c1C(F)(F)F` (single isomer, unassigned) [Ex-26], the half-inhibitory concentration (IC50) in assay [1] was determined as 1550 nM; in assay [2] it was 3920 nM; in assay [3] it was 2010 nM; against G13D, 711 nM; in assay [4] it was 7730 nM.

Take `C#Cc1cccc2cc(O)cc(-c3ncc4c(N5CCC[C@@](C)(O)C5)nc(OC[C@@]56CCCN5C[C@H](F)C6)nc4c3F)c12` [Ex-23, (R)-1-(7-(8-ethynyl-3-hydroxynaphthalen-1-yl)-8-fluoro-2-(((2R,7aS)-2-fluorotetrahydro-1H-pyrrolizin-7a(5H)-yl)methoxy)pyrido[4,3-d]pyrimidin-4-yl)-3-methylpiperidin-3-ol]: the IC50 amounted to 1 nM in assay [1]; 65 nM in assay [2]; 1 nM in assay [3]; 2 nM against G13D; 14 nM in assay [4].

On to `CC1(O)CN(c2nc(OC[C@@]34CCCN3C[C@H](F)C4)nc3c(F)c(-c4cc(O)cc5cccc(Cl)c45)c(F)cc23)CCC1F` (stereo partly drawn) [Ex-32, 1-(7-(8-chloro-3-hydroxynaphthalen-1-yl)-6,8-difluoro-2-(((2R,7aS)-2-fluorotetrahydro-1H-pyrrolizin-7a(5H)-yl)methoxy)quinazolin-4-yl)-4-fluoro-3-methylpiperidin-3-ol], for which the IC50 in assay [1] is 40 nM; in assay [2], 261 nM; in assay [3] it was 59 nM; against G13D, 16 nM; in assay [4], 118 nM.

`C#Cc1cccc2cc(O)cc(-c3ncc4c(N5CCC[C@@](C)(O)C5)nc(OC[C@]5(CN(C)C)CC5(F)F)nc4c3F)c12` [Ex-24, (R)-1-(2-(((R)-1-((dimethylamino)meth-yl)-2,2-difluorocyclopropyl)methoxy)-7-(8-ethynyl-3-hydroxynaphthalen-1-yl)-8-fluoropyrido[4,3-d]pyrimidin-4-yl)-3-methylpiperidin-3-ol]: the 50% inhibitory concentration (IC50) in assay [1] was determined as 1 nM; in assay [2], 20 nM; in assay [3] it was 1 nM; against G13D it was 1 nM; in assay [4] it was 2 nM.

For the molecule `CN(C)CC1(COc2nc(N3CCCC(C)(O)C3)c3cc(F)c(-c4cc(O)ccc4OC(F)(F)F)c(F)c3n2)CC1` (stereo not shown) [Ex-9, 1-(2-((1-((dimethylamino)methyl)cyclopropyl)methoxy)-6,8-difluoro-7-(5-hydroxy-2-(trifluoromethoxy)phenyl)quinazolin-4-yl)-3-methylpiperidin-3-ol], the IC50 in assay [1] came to 381 nM; in assay [2] it was 1880 nM; in assay [3], 315 nM; at G13D, 221 nM; in assay [4], 4210 nM.

For `Oc1cc(-c2c(F)cc3c(N4CCCCC(O)C4)nc(OC[C@@]45CCCN4C[C@H](F)C5)nc3c2F)c2c(Cl)cccc2c1` (stereo partly drawn) [Ex-34, 1-(7-(8-chloro-3-hydroxynaphthalen-1-yl)-6,8-difluoro-2-(((2R,7aS)-2-fluorotetrahydro-1H-pyrrolizin-7a(5H)-yl)methoxy)quinazolin-4-yl)azepan-3-ol], the 50% inhibitory concentration (IC50) in assay [1] was 589 nM; in assay [2], 6300 nM; in assay [3], 285 nM; against G13D it was 441 nM; in assay [4], 3620 nM.

`C#Cc1c(F)ccc2cccc(-c3c(F)cc4c(N5CCC[C@@](C)(O)C5)nc(OC[C@@]56CCCN5[C@H](COC(=O)N(C)C)CC6)nc4c3F)c12` [Ex-45, ((3S,7aS)-7a-(((7-(8-ethynyl-7-fluoronaphthalen-1-yl)-6,8-difluoro-4-((R)-3-hydroxy-3-methylpiperidin-1-yl)quinazolin-2-yl)oxy)methyl)hexahydro-1H-pyrrolizin-3-yl)methyl dimethylcarbamate]: the concentration for half-maximal inhibition (IC50) in assay [1] is 12 nM; in assay [2] it was 379 nM; in assay [3], 23 nM; on G13D, 14 nM; in assay [4] it was 331 nM.

For `CN(C)CC1(COc2nc(N3CCCC(C)(O)C3)c3cc(F)c(-c4cc(O)cc5ccccc45)c(F)c3n2)CC1` (stereo not shown) [Ex-8, 1-(2-((1-((dimethylamino)methyl)cyclopropyl)methoxy)-6,8-difluoro-7-(3-hydroxynaphthalen-1-yl)quinazolin-4-yl)-3-methylpiperidin-3-ol], the IC50 on NRAS (SEQ ID NO: 5) and against HRAS (SEQ ID NO: 4) was greater than 9950 nM each time.
